The values below come from patent US6800470B2, “Mammalian sphingosine kinase type 2 isoforms, cloning, expression and methods of use thereof” (Sankyo Company, Ltd., priority 2000, dated 2004).

Assay [1] concerns the target T1, mSPHK2 (Mus musculus, UniProt Q9JIA7).
T1 construct: The open reading frames of mSPHK2 and hSPHK2 encode polypeptides of 617 and 618 amino acids, respectively; made in house; host or cells: HEK293 (ATCC CRL-1573), transient transfection; unpurified cytosol or whole lysate
T1 sequence (Q9JIA7 1-617): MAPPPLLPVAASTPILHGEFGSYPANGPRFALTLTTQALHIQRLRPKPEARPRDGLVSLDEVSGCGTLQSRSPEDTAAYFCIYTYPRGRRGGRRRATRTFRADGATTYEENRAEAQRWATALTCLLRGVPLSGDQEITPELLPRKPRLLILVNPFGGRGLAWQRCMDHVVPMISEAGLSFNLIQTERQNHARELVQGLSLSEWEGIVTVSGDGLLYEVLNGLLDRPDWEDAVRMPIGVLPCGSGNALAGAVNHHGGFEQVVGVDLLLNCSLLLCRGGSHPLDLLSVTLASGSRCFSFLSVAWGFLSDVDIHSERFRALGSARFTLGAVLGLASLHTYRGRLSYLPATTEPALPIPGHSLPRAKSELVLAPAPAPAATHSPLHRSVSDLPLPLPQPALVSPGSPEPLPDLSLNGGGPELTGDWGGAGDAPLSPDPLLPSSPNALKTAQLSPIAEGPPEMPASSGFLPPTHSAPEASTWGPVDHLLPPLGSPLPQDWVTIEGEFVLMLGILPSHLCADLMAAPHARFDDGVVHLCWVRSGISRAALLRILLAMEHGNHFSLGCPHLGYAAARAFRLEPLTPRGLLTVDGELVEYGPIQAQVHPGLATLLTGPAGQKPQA
In words: SPHK activity assay with recombinant mSPHK2 (cytosol/lysates of transfected HEK293 cells, [g-32P]ATP, TLC). Format: biochemical. As to conditions: for SPHK-dependent phosphorylation by SPHK2 (substrate specificity): lipids 50 mM as printed, cytosol of HEK293 cells transfected with mSPHK2, compared with D-erythro-sphingosine; for salt concentration with maximal stimulation of SPHK2 activity: increasing salt concentration, FIG. 5C. Here is the method: Lanes: 1, D-erythro-sphingosine (“D-erythro-Sph”); 2, D-erythro-dihydrosphingosine (“D-erythro-DHS”); 3, D, L-threo-DHS; 4, N,N-dimethylsphingosine (“DMS”); 5, C2-ceramide; 6, C16-ceramide; 7, diacylglycerol; 8, phosphatidylinositol; 9, phytosphingosine. Data are expressed as percentage of phosphorylation of D-erythro-Sph.
SPHK activity in HEK293 cell lysates after transfection as in FIG. 4A was measured with 10 μM D-erythro-sphingosine in the presence of increasing concentrations of DMS.
SPHK activity was measured with varying concentrations of D-erythro-sphingosine in the absence (open circles) or presence of 10 μM (filled squares) or 20 μM DMS (filled triangles).
FIG. 4D are Lineweaver-Burk plots.
(§1) In FIGS. 5B and 5C, the SPHK activity in HEK293 cell lysates was measured 24 hours after transfection with mSPHK1 (FIG. 5B) or mSPHK2 (FIG. 5C) in the absence or presence of increasing concentrations of NaCl (open squares) or KCl (filled circles).
FIG. 5E are Lineweaver-Burk plots of data from FIG. 5D.
(§2) HEK293 cells were transfected with mSPHK1a (open circles) or mSPHK2 (filled circles) and the activities of each in cell lysates were measured after 24 hours in the presence of the indicated concentrations of Triton X-100 (FIG. 6A) or BSA (FIG. 6B).
(§3) HEK293 cells were transfected with mSPHK1a (circles) or mSPHK2 (triangles) and the activities of each in cell lysates were measured after 24 hours in the presence of the indicated concentrations of phosphatidylserine (filled symbols) or phosphatidylcholine (open symbols). Data are expressed as percentage of control activity measured without any additions.
(§4) Human embryonic kidney cells (HEK293, ATCC CRL-1573) and NIH 3T3 fibroblasts (ATCC CRL-1658) were cultured as described in Olivera, A., Kohama, T., Edsall, L. C., Nava, V., Cuvillier, O., Poulton, S., and Spiegel, S., J. Cell Biol., 147 (1999) 545-558. HEK293 cells were seeded at 6×10^5 per well in poly-L-lysine coated 6 well plates. After 24 hours, cells were transfected with 1 μg of vector alone or with vectors containing sphingosine kinase constructs and 6 μl of “Lipofectamine PLUS” reagent plus 4 μl of “Lipofectamine” reagent per well. One to three days after transfection, cells were harvested and lysed by freeze-thawing as described in Kohama, T., Olivera, A., Edsall, L., Nagiec, M. M., Dickson, R., and Spiegel, S., J. Biol. Chem., 273, (1998), 23722-23728. In some experiments, cell lysates were fractionated into cytosol and membrane fractions by centrifugation at 100,000×g for 60 minutes. SPHK activity was determined in the presence of sphingosine, prepared as a complex with 4 mg/ml BSA, and [g-32P] ATP in kinase buffer (Olivera, A. and Spiegel, S. in Methods in Molecular Biology, (Bird, I. M. ed.), (1998), Vol. 105, 233-242, Humana Press, Inc., Totowa, N.J.), containing 200 mM KCl, unless indicated otherwise. 32P-SPP was separated by TLC and quantified with a phosphoimager as previously described.

For assay [2], the target named is T2, mSPHK1a (Mus musculus, UniProt Q8CI15).
T2 construct: made in house; host or cells: HEK293 (ATCC CRL-1573), transient transfection; unpurified cell lysate
In words: SPHK activity assay with recombinant mSPHK1a (lysates of transfected HEK293 cells). Format: biochemical. As to conditions: for inhibition of SPHK1 activity: salt concentration 200 mM. The method, then:
as §1, §2, §3, §4

Assay [3] has as its target T2, mSPHK1a. As to conditions: cited from earlier work; for inhibition of SPHK1: previously shown (Edsall et al. 1998).
The test system of assay [4] is HEK293 cells. Nature of the assay: SPHK activity in HEK293 cells transiently transfected with SPHK expression vectors (cytosol and particulate fractions). Format: cell-based, human. The conditions noted are these: 24 hours after transfection of HEK293 cells. The method, then:
In FIG. 3A, HEK 293 cells were transiently transfected with an empty vector or with mSPHK2 or hSPHK2 expression vectors. After 24 hours, SPHK activity was measured in cytosol (open bars) and particulate fractions (filled bars). The data are means±S.D. Parental and vector-transfected cells had basal SPHK activities of 26 and 37 pmol/min/mg, respectively.
as §4

“Also recorded” adds a separate entry of the source.

T2 sequence (Q8CI15 1-381 isoform Q8CI15-3): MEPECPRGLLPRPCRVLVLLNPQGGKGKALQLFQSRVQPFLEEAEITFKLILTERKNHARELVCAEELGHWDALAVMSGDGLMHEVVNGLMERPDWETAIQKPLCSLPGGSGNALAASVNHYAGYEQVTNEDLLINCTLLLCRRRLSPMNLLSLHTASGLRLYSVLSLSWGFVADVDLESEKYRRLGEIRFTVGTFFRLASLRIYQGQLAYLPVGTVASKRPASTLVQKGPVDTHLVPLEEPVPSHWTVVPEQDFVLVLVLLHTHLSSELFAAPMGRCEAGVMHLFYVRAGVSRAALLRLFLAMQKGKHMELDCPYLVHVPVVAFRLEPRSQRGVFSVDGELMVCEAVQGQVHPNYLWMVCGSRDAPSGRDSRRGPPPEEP

Turning to `CCCCCCCCCCCCC/C=C/[C@@H](O)[C@H](CO)NC(C)=O` [C2-ceramide], the “SPHK-dependent phosphorylation by SPHK2 (substrate specificity)” value (from here on “SPHK-dependent phosphorylation by SPHK2”) in assay [1] is listed as “not phosphorylated”.
Same read-out and setting: with `CCCCCCCCCCCCC/C=C/[C@@H](O)[C@H](CO)NC(=O)CCCCCCCCCCCCCCC` [C16-ceramide] the entry was “not phosphorylated”.
As to `CCCCCCCCCCCCCCC[C@H](O)[C@@H](N)CO` [D,L-threo-dihydrosphingosine], the “phosphorylation by SPHK1” value in assay [2] was “not phosphorylated at all”. For the same compound, the “SPHK-dependent phosphorylation by SPHK2” value is recorded as “significantly phosphorylated” in assay [1] and “to a lesser extent” in assay [1] (listed as D, L-threo-dihydrosphingosine).
As to `CCCCCCCCCCCCCCC[C@@H](O)[C@@H](N)CO` [D-erythro-dihydrosphingosine], the “SPHK-dependent phosphorylation by SPHK2” value in assay [1] is reported as “better substrate for SPHK2 than D-erythro-sphingosine”.
With `CCCCCCCCCCCCC/C=C/[C@@H](O)[C@@H](N)CO` [D-erythro-sphingosine], the “phosphorylation by SPHK1 (substrate rank)” value in assay [3] (Kohama et al. 1998) is “best substrate”.
Turning to `CCCCCCCCCCCCCCC[C@@H](O)[C@@H](N)CO` [DHS, dihydrosphingosine], the “SPHK-dependent phosphorylation by SPHK2” value in assay [1] is on record as “even better substrate than D-erythro-sphingosine”. Further, the “inhibition of SPHK1” value in assay [3] was “potent competitive inhibitors; also recorded: potent inhibitor”.
In the case of `[Cl-].[K+]` [KCl], the “inhibition of SPHK1 activity” value in assay [2] is listed as 50%. Besides, the “Km value of mSPHK2 for sphingosine in the presence of KCl” value in assay [1] (50 or 200 mM KCl) was “not affected”. Besides, the “Vmax of mSPHK2” value in assay [1] (in the presence of 50 mM KCl) is given as 0.3 nmol/min/mg; in assay [1] (in the presence of 200 mM KCl) it was 1 nmol/min/mg. In assay [1] (in words), the “effect on SPHK2 activity” value is recorded as “dramatically stimulated; also recorded: markedly stimulated”. For the same compound, the “salt concentration with maximal stimulation of SPHK2 activity” value in assay [1] stood at 400 mM.
Turning to `[Cl-].[Na+]` [NaCl], in assay [2], the “inhibition of SPHK1 activity” value was 50%. The “effect on SPHK2 activity” value in assay [1] (in words) is recorded as “dramatically stimulated; also recorded: markedly stimulated”. Moreover, the “salt concentration with maximal stimulation of SPHK2 activity” value in assay [1] is recorded as 400 mM.
Take `CCCCCCCCCCCCCC[C@@H](O)[C@@H](O)[C@@H](N)CO` [phytosphingosine]: the “phosphorylation by SPHK1” value in assay [2] is on record as “not phosphorylated at all”. Besides, in assay [1], the “SPHK-dependent phosphorylation by SPHK2” value was “significantly phosphorylated; also recorded: to a lesser extent”.
Turning to N,N-dimethylsphingosine [DMS], in assay [1] (10 μM D-erythro-sphingosine, increasing concentrations of DMS (FIG. 4B)), the “inhibition of SPHK2” value is recorded as “potent inhibitor”. For the same compound, in assay [1] (kinetic analysis, FIG. 4C and 4D), the “manner of inhibition of SPHK2” value is given as “non-competitive”. The “SPHK-dependent phosphorylation by SPHK2” value in assay [1] is on record as “not phosphorylated”. For the same compound, the Ki (in general, the equilibrium dissociation constant of an inhibitor or competing ligand from its target) in assay [1] (recombinant mSPHK2, HEK293 cell lysates, varying D-erythro-sphingosine, 10 or 20 μM DMS, Lineweaver-Burk, read-out: Ki for DMS with SPHK2) was 12 µM. For the same compound, the “inhibition of SPHK1” value in assay [3] was “potent competitive inhibitors; also recorded: competitive inhibitor”.
In the case of Triton X-100, the “increase of SPHK1 activity” value in assay [2] (Triton X-100 0.5%) is reported as “more than 4 fold”. The “effect on SPHK1 activity” value in assay [2] (detergent below 0.005%) is recorded as “no effect”; in assay [2] (in words) it was “markedly increased”. Besides, the results for the “effect on SPHK2 activity” value in assay [1] (Triton X-100 0.5%), in assay [1] (detergent below 0.005%) and in assay [1] (in words) were “almost completely inhibited”, “no effect” and “inhibited”, respectively.
As for diacylglycerol, the “SPHK-dependent phosphorylation by SPHK2” value in assay [1] is “not phosphorylated”.
As for “mSPHK1: first cloned mammalian (murine) sphingosine kinase, type 1”, the “increase of in vitro SPHK activity over basal levels” value in assay [4] came out at 610 fold.
On to “phosphatidylcholine [phosphatidyicholine]”, for which the “effect on SPHK1 activity” value in assay [2] (in words) was “no effect”. The “effect on SPHK2 activity” value in assay [1] (in words) is listed as “no effect”.
As to phosphatidylinositol, the “SPHK-dependent phosphorylation by SPHK2” value in assay [1] is “not phosphorylated”.
Take phosphatidylserine: the “effect on SPHK1 activity” value in assay [2] (in words) is on record as “stimulated”. The “maximal increase of SPHK1 activity” value in assay [2] (phosphatidylserine 40 μg/ml) was 4 fold. Besides, the “effect on SPHK2 activity” value in assay [1] (in words) is on record as “stimulated”. Moreover, the “maximal increase of SPHK2 activity” value in assay [1] (phosphatidylserine 40 μg/ml) came to 4 fold.
